# In PubChem BioAssay (NCI):
# Values joined by “and” are separate entries in the source; they are usually repeats but may differ in a detail not shown here. Equal entries are not always repeated.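 In this assay, cells in 96-well plates receive the compound at five concentrations for 48 hours. Endpoints are linearly interpolated between the surrounding concentrations. Abbreviation: GI50, concentration required for 50% inhibition of growth. TGI: total growth inhibition.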 Active and inactive are the calls of the source. Rule as the data show it: active = GI50 below about 0.43 µM; inactive = the rest.
# Tests used:
# Assay in all cases: inhibition of tumour cell growth, NCI panel, 48 h
# [1] = system: UACC-257 melanoma
# [2] = system: MDA-MB-435
# [3] = system: NCI-H522 lung
# [4] = system: NCI/ADR-RES ovarian
# [5] = system: SNB-75 CNS
# [6] = system: NCI-H23 lung
# [7] = system: K-562 leukemia
# [8] = system: HCT-15 colon
# [9] = system: HOP-62 NSCLC
# [10] = system: SN12C renal
# [11] = system: LXFL 529 NSCLC
# [12] = system: OVCAR-4 ovarian
# [13] = system: OVCAR-3 ovarian
# [14] = system: HOP-18 NSCLC
# [15] = system: T-47D breast
# [16] = system: SF-268 CNS
# [17] = system: SK-MEL-28 melanoma
# [18] = system: HCT-116 colon
# [19] = system: MOLT-4 leukemia
# [20] = system: HT29 colon
# [21] = system: HCC-2998 colon
# [22] = system: M19-MEL melanoma
# [23] = system: UO-31 renal
# [24] = system: IGROV1 ovarian
# [25] = system: A549 NSCLC
# [26] = system: LOX IMVI melanoma
# [27] = system: DLD-1 colon
# [28] = system: XF 498 CNS
# [29] = system: RXF 393 renal
# [30] = system: SK-OV-3 ovarian
# [31] = system: SK-MEL-2 melanoma
# [32] = system: HOP-92 NSCLC
# [33] = system: UACC-62 melanoma
# [34] = system: EKVX NSCLC
# [35] = system: MDA-N
# [36] = system: RPMI-8226 leukemia
# [37] = system: SK-MEL-5 melanoma
# [38] = system: 786-0 renal
# [39] = system: BT-549 breast
# [40] = system: SNB-19 CNS
# [41] = system: HL-60(TB) leukemia
# [42] = system: OVCAR-5 ovarian
# [43] = system: SF-295 CNS
# [44] = system: SR leukemia
# [45] = system: TK-10 renal
# [46] = system: M14 melanoma
# [47] = system: OVCAR-8 ovarian
# [48] = system: SF-539 CNS
# [49] = system: A498 renal
# [50] = system: KM12 colon
# [51] = system: DU-145 prostate
# [52] = system: NCI-H460 lung
# [53] = system: ACHN renal
# [54] = system: DMS 273 small cell lung
# [55] = system: MDA-MB-231 breast
# [56] = system: MCF7 breast
# [57] = system: PC-3 prostate
# [58] = system: U251 CNS
# [59] = system: DMS 114 small cell lung
# [60] = system: NCI-H226 lung
# [61] = system: CCRF-CEM leukemia
# [62] = system: CAKI-1 renal
# [63] = system: HS 578T breast
# [64] = system: SW-620 colon
# [65] = system: COLO 205 colon
# [66] = system: MALME-3M melanoma
# [67] = system: SNB-78 CNS
smiles,measurement,setting,value
Cn1c2ccccc2n2c3nc4ccccc4nc3c(C#N)c12,TGI,[1],> 100 µM
same,TGI,[2],> 100 µM
same,TGI,[3],> 96.6 µM
same,TGI,[4],> 100 µM
same,TGI,[5],> 100 µM
same,TGI,[6],> 100 µM
same,TGI,[7],> 100 µM
same,TGI,[8],> 100 µM
same,TGI,[9],> 100 µM
same,TGI,[10],> 100 µM
same,TGI,[11],> 100 µM
same,TGI,[12],> 100 µM
same,TGI,[13],> 100 µM
same,TGI,[14],> 100 µM
same,TGI,[15],> 100 µM
same,TGI,[16],> 100 µM
same,TGI,[17],> 100 µM
same,TGI,[18],> 100 µM
same,TGI,[19],> 100 µM
same,TGI,[20],> 100 µM
same,TGI,[21],> 79.1 µM
same,TGI,[22],> 100 µM
same,TGI,[23],> 100 µM
same,TGI,[24],> 100 µM
same,TGI,[25],> 100 µM
same,TGI,[26],> 100 µM
same,TGI,[27],> 100 µM
same,TGI,[28],> 100 µM
same,TGI,[29],> 100 µM
same,TGI,[30],> 100 µM
same,TGI,[31],> 100 µM
same,TGI,[32],> 100 µM
same,TGI,[33],> 100 µM
same,TGI,[34],> 100 µM
same,TGI,[35],> 100 µM
same,TGI,[36],> 100 µM
same,TGI,[37],> 100 µM
same,TGI,[38],> 100 µM
same,TGI,[39],> 100 µM
same,TGI,[40],> 100 µM
same,TGI,[41],> 100 µM
same,TGI,[42],> 100 µM
same,TGI,[43],> 100 µM
same,TGI,[44],> 100 µM
same,TGI,[45],> 100 µM
same,TGI,[46],> 100 µM
same,TGI,[47],> 100 µM
same,TGI,[48],> 100 µM
same,TGI,[49],9.72 µM
same,TGI,[50],> 100 µM
same,TGI,[51],> 100 µM
same,TGI,[52],> 100 µM
same,TGI,[53],> 100 µM
same,TGI,[54],> 100 µM
same,TGI,[55],> 100 µM
same,TGI,[56],> 100 µM
same,TGI,[57],> 100 µM
same,TGI,[58],> 100 µM
same,TGI,[59],> 100 µM
same,TGI,[60],> 100 µM
same,TGI,[61],> 100 µM
same,TGI,[62],> 100 µM
same,TGI,[63],> 100 µM
same,TGI,[64],> 100 µM
same,TGI,[65],> 100 µM
same,TGI,[66],> 100 µM
COc1cc2[nH]c(-c3ccccc3)cc(=O)c2cc1OC,TGI,[1],> 100 µM
same,TGI,[2],12.2 µM
same,TGI,[3],> 56.3 µM
same,TGI,[4],> 100 µM
same,TGI,[5],> 87.1 µM
same,TGI,[6],> 84.6 µM
same,TGI,[7],> 100 µM
same,TGI,[8],97.9 µM
same,TGI,[9],> 100 µM
same,TGI,[10],> 100 µM
same,TGI,[12],> 100 µM
same,TGI,[13],> 100 µM
same,TGI,[15],> 100 µM
same,TGI,[16],> 100 µM
same,TGI,[17],> 100 µM
same,TGI,[18],> 49.7 µM
same,TGI,[19],> 100 µM
same,TGI,[20],56.7 µM
same,TGI,[21],> 87.4 µM
same,TGI,[23],> 100 µM
same,TGI,[24],> 100 µM
same,TGI,[25],> 69.8 µM
same,TGI,[26],> 100 µM
same,TGI,[29],> 72.7 µM
same,TGI,[30],> 100 µM
same,TGI,[31],> 100 µM
same,TGI,[32],> 100 µM
same,TGI,[33],> 89 µM
same,TGI,[34],> 100 µM
same,TGI,[35],6.44 µM
same,TGI,[36],> 100 µM
same,TGI,[37],54.4 µM
same,TGI,[38],> 100 µM
same,TGI,[39],> 100 µM
same,TGI,[40],> 100 µM
same,TGI,[41],41 µM
same,TGI,[42],> 100 µM
same,TGI,[43],> 100 µM
same,TGI,[44],> 48.3 µM
same,TGI,[45],98.7 µM
same,TGI,[46],> 76.2 µM
same,TGI,[47],> 89.4 µM
same,TGI,[48],60.5 µM
same,TGI,[49],> 100 µM
same,TGI,[50],> 74.9 µM
same,TGI,[51],> 100 µM
same,TGI,[52],> 66.6 µM
same,TGI,[53],> 100 µM
same,TGI,[55],> 87.3 µM
same,TGI,[56],> 28.8 µM
same,TGI,[57],> 100 µM
same,TGI,[58],> 100 µM
same,TGI,[60],53.6 µM
same,TGI,[61],> 65.6 µM
same,TGI,[62],> 100 µM
same,TGI,[63],> 100 µM
same,TGI,[64],> 100 µM
same,TGI,[65],> 33.3 µM
same,TGI,[66],> 100 µM
CCOC(=O)c1sc2c(C(=O)OCC)n3ccccc3c2c1N,GI50,[3],24.3 µM
same,TGI,[3],63 µM and 68 µM
same,TGI,[5],99.1 µM
same,GI50,[6],74.2 µM
same,GI50,[9],22.5 µM
same,TGI,[9],57.3 µM and 70.7 µM
same,GI50,[10],73.5 µM
same,GI50,[16],36.6 µM
same,GI50,[18],35.9 µM
same,outcome,[19],inactive
same,GI50,[23],49.2 µM
same,TGI,[23],67.1 µM
same,GI50,[28],33.9 µM
same,TGI,[28],48 µM
same,TGI,[29],50 µM
same,GI50,[32],23.8 µM
same,TGI,[32],55.2 µM
same,GI50,[34],70 µM
same,outcome,[36],inactive
same,GI50,[40],23.9 µM
same,TGI,[40],90.9 µM and 65.5 µM
same,GI50,[67],27.3 µM
same,outcome,[44],inactive
same,GI50,[47],52.1 µM
same,GI50,[48],22.3 µM
same,TGI,[48],75.4 µM
same,GI50,[53],89.4 µM
same,GI50,[59],47.5 µM
COc1ccc(-c2cn3c(n2)sc2cc(C)ccc23)cc1,TGI,[1],24.2 µM
same,TGI,[2],63.2 µM
same,TGI,[3],51.4 µM
same,TGI,[4],> 100 µM
same,TGI,[5],37.3 µM
same,TGI,[6],> 100 µM
same,TGI,[7],> 100 µM
same,TGI,[8],> 100 µM
same,TGI,[9],81.3 µM
same,TGI,[10],88.7 µM
same,TGI,[12],83.8 µM
same,TGI,[13],> 100 µM
same,TGI,[15],> 100 µM
same,TGI,[16],78.7 µM
same,TGI,[17],> 100 µM
same,TGI,[18],> 100 µM
same,TGI,[19],> 100 µM
same,TGI,[20],> 100 µM
same,TGI,[21],69.6 µM
same,TGI,[23],> 100 µM
same,TGI,[24],42.1 µM
same,TGI,[25],> 100 µM
same,TGI,[26],> 100 µM
same,TGI,[29],35.8 µM
same,TGI,[30],98.9 µM
same,TGI,[31],37.1 µM
same,TGI,[32],20.8 µM
same,TGI,[33],41.9 µM
same,TGI,[34],39.7 µM
same,TGI,[35],58.4 µM
same,TGI,[36],> 100 µM
same,TGI,[37],14.3 µM
same,TGI,[38],59.8 µM
same,TGI,[39],87.4 µM
same,TGI,[40],> 100 µM
same,TGI,[41],23 µM
same,TGI,[42],> 100 µM
same,TGI,[43],52.5 µM
same,TGI,[44],> 100 µM
same,TGI,[45],47.3 µM
same,TGI,[46],> 100 µM
same,TGI,[47],47.2 µM
same,TGI,[48],33.7 µM
same,TGI,[49],47.4 µM
same,TGI,[50],> 100 µM
same,TGI,[51],> 100 µM
same,TGI,[52],> 100 µM
same,TGI,[53],> 100 µM
same,TGI,[55],42.4 µM
same,TGI,[56],95.7 µM
same,TGI,[57],50.9 µM
same,TGI,[58],21.8 µM
same,TGI,[60],62.2 µM
same,TGI,[61],> 100 µM
same,TGI,[62],> 100 µM
same,TGI,[63],67.5 µM
same,TGI,[64],> 100 µM
same,TGI,[65],19.6 µM
same,TGI,[66],> 100 µM
